Experimental findings from US10538555B2, “Macrocyclic inhibitors of the PD-1/PD-L1 and CD80(B7-1)/PD-L1 protein/protein interactions” (BRISTOL-MYERS SQUIBB COMPANY, priority 2014, dated 2020) are described below.

SMILES strings stand for the structures. *1 amine or outer side, *2 acyl side, *3 side chain or, on linkers, in order; H or OH if unused. Where a SMILES comes first, the peptide text is derived from it. Bridges are numbered along the chain shown (N, C = ends). [ ]: non-standard residue; d: D form. ξ: configuration not given here. Trp(1-CH2COOH) = N[C@@H](Cc1cn(CC(=O)O)c2ccccc12)C(=O)O; Phe(3,4,5-F3) = N[C@@H](Cc1cc(F)c(F)c(F)c1)C(=O)O; NMePhe(4-F) = CN[C@@H](Cc1ccc(F)cc1)C(=O)O; Morpholine(3S-CO) = O=C(O)[C@@H]1COCCN1; Phe(4-F) = N[C@@H](Cc1ccc(F)cc1)C(=O)O; NMeY = CN[C@@H](Cc1ccc(O)cc1)C(=O)O; Hyp = O=C(O)[C@@H]1C[C@@H](O)CN1; NMeF = CN[C@@H](Cc1ccccc1)C(=O)O; X1 = O=C([C@H]1COCCN1[*:1])[*:2]; dHyp = O=C(O)[C@H]1C[C@H](O)CN1; NMeNle = CCCC[C@H](NC)C(=O)O; Pip = O=C(O)[C@@H]1CCCCN1; dPip = O=C(O)[C@H]1CCCCN1; hSer = N[C@@H](CCO)C(=O)O; NMeA = CN[C@@H](C)C(=O)O; Orn = NCCC[C@H](N)C(=O)O; Aze = O=C(O)[C@@H]1CCN1; Dab = NCC[C@H](N)C(=O)O; Dap = NC[C@H](N)C(=O)O; ξC = NC(CS)C(=O)O

In the first experiment the target is T1, Human PD-L1/PD-1 (Homo sapiens, UniProt Q9NZQ7).
T1 construct: TVMV protease cleavage site (C); made in house; host or cells: HEK293T cells
T1 sequence (Q9NZQ7 with tags, fused parts or gaps): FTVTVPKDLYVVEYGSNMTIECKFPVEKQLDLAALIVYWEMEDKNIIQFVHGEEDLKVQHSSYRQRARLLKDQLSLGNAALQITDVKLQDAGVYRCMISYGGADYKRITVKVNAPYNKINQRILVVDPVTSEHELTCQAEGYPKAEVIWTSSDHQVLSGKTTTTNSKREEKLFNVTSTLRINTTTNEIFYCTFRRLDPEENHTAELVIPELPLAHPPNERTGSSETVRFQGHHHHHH
The experiment in a line: HTRF Human PD-L1/PD-1 binding assay (PD-1-Ig/PD-L1-His). The conditions noted are these: PD-L1-His 10 nM, PD-1-Ig 20 nM; class symbol; read-out: HTRF Human PD-L1/PD-1 Binding Assay IC50 Range. The essentials:
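Truncated Fc-fused human PD-1 (aa 25-167) at 20 nM and His-tagged PD-L1 (aa 18-239) at 10 nM final are used, with peptides preincubated 15 min with PD-L1. Detection uses europium-cryptate anti-Ig and APC anti-His antibodies; 665/620 nm ratio.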
On the technique in general: Time-resolved FRET reads energy transfer from a long-lived donor to a nearby acceptor.
As for `CCCC[C@H]1C(=O)N2CCC[C@@H]2C(=O)N[C@@H](CC(=O)O)C(=O)N[C@@H](C(C)C)C(=O)N(C)[C@@H](Cc2ccccc2)C(=O)N[C@@H](CCC(=O)O)C(=O)N2CCOC[C@@H]2C(=O)N[C@@H](Cc2c[nH]c3ccccc23)C(=O)N[C@@H](Cc2ccc(O)cc2)C(=O)N[C@@H](CC(N)=O)C(=O)N[C@H](C(=O)NCC(N)=O)CSCC(=O)N[C@@H](Cc2cc(F)c(F)c(F)c2)C(=O)N(C)[C@@H](Cc2ccc(F)cc2)C(=O)N1C` [Example 10597] ({CH2CO}-[Phe(3,4,5-F3)][NMePhe(4-F)][NMeNle][dP]DV[NMeF]E[X1]WYNCG-NH2; thioether N-13), the IC50 was 1 to 9.9 nM.
With `CCCC[C@H]1C(=O)N2CCC[C@@H]2C(=O)N2CC[C@H]2C(=O)N[C@@H](C(C)C)C(=O)N(C)[C@@H](Cc2ccccc2)C(=O)N[C@@H](Cc2ccc(O)cc2)C(=O)N2CCCC[C@@H]2C(=O)N[C@@H](Cc2c[nH]c3ccccc23)C(=O)N[C@@H](Cc2ccc(O)cc2)C(=O)N[C@@H](CC(C)C)C(=O)N[C@H](C(=O)NCC(N)=O)CSCC(=O)N[C@@H](Cc2cc(F)c(F)c(F)c2)C(=O)N(C)[C@@H](Cc2ccccc2)C(=O)N1C` [Example 3221] ({CH2CO}-[Phe(3,4,5-F3)][NMeF][NMeNle][dP][Aze]V[NMeF]Y[dPip]WYLCG-NH2; thioether N-13), the IC50 was in the range of 10 to 99.9 nM.
Same read-out and setting: the result for `CCCC[C@H]1C(=O)N(C)CC(=O)N[C@@H](CC(=O)O)C(=O)NC(C(C)c2ccccc2)C(=O)N(C)[C@@H](Cc2ccccc2)C(=O)N[C@@H](Cc2ccc(O)cc2)C(=O)N(C)CC(=O)N[C@@H](Cc2c[nH]c3ccccc23)C(=O)N[C@@H](Cc2ccc(O)cc2)C(=O)N[C@@H](CC(C)C)C(=O)N[C@H](C(=O)NCC(N)=O)CSCC(=O)N[C@@H](Cc2ccccc2)C(=O)N(C)[C@@H](Cc2ccccc2)C(=O)N1C` (single isomer, unassigned) [Example 3230-C] reads 100 to 990 nM; that for `CCCC[C@H]1C(=O)N(C)[C@@H](CCCC)C(=O)N[C@@H](C)C(=O)N[C@H](C(=O)NCC(N)=O)CSCC(=O)N[C@@H](Cc2ccc(O)cc2)C(=O)N2CCOC[C@H]2C(=O)N[C@@H](CC(=O)O)C(=O)N2CCC[C@H]2C(=O)N[C@@H](CN)C(=O)N[C@@H](CC(C)C)C(=O)N2C[C@H](O)C[C@H]2C(=O)N[C@@H](Cc2c[nH]c3ccccc23)C(=O)N[C@@H](CO)C(=O)N[C@@H](Cc2c[nH]c3ccccc23)C(=O)N1C` [Example 1522] ({CH2CO}-Y[Morpholine(3S-CO)]DP[Dap]L[Hyp]WSW[NMeNle][NMeNle]ACG-NH2; thioether N-14), 10 to 99.9 nM.
`CCCC[C@H]1C(=O)N(C)CC(=O)N[C@@H](CC(=O)O)C(=O)NC(C(C)c2ccccc2)C(=O)N(C)[C@@H](Cc2ccccc2)C(=O)N[C@@H](Cc2ccc(O)cc2)C(=O)N(C)CC(=O)N[C@@H](Cc2c[nH]c3ccccc23)C(=O)N[C@@H](Cc2ccc(O)cc2)C(=O)N[C@@H](CC(C)C)C(=O)N[C@H](C(=O)NCC(N)=O)CSCC(=O)N[C@@H](Cc2ccccc2)C(=O)N(C)[C@@H](Cc2ccccc2)C(=O)N1C` (single isomer, unassigned) [Example 3230-A]: the IC50 lay in the range of 1000 to 10000 nM.
As for `CCCC[C@H]1C(=O)N2CCC[C@@H]2C(=O)N[C@@H](CC(=O)O)C(=O)N[C@@H](C(C)C)C(=O)N(C)[C@@H](Cc2ccccc2)C(=O)N[C@@H](CCN)C(=O)N2CCOC[C@@H]2C(=O)N[C@@H](Cc2c[nH]c3ccccc23)C(=O)N[C@@H](Cc2ccc(O)cc2)C(=O)N[C@@H](CCC(=O)O)C(=O)N[C@H](C(=O)NCC(N)=O)CSCC(=O)N[C@@H](Cc2cc(F)c(F)c(F)c2)C(=O)N(C)[C@@H](Cc2ccc(O)cc2)C(=O)N1C` [Example 10624] ({CH2CO}-[Phe(3,4,5-F3)][NMeY][NMeNle][dP]DV[NMeF][Dab][X1]WYECG-NH2; thioether N-13), the IC50 is 10 to 99.9 nM.
As to `CCCC[C@H]1C(=O)N(C)[C@@H](CCCC)C(=O)N[C@@H](CCCNC(=N)N)C(=O)N[C@H](C(=O)NCC(N)=O)CSCC(=O)N[C@@H](Cc2ccc(F)cc2)C(=O)N(C)[C@@H](C)C(=O)N[C@@H](CC(N)=O)C(=O)N2CCC[C@H]2C(=O)N[C@@H](Cc2cnc[nH]2)C(=O)N[C@@H](CCC(=O)O)C(=O)N2C[C@H](O)C[C@H]2C(=O)N[C@@H](Cc2c[nH]c3ccccc23)C(=O)N[C@@H](CCN)C(=O)N[C@@H](Cc2c[nH]c3ccccc23)C(=O)N1C` [Example 7081] ({CH2CO}-[Phe(4-F)][NMeA]NPHE[Hyp]W[Dab]W[NMeNle][NMeNle]RCG-NH2; thioether N-14), the IC50 fell in the range of 1 to 9.9 nM.
Consider `CCCC[C@H]1C(=O)N(C)[C@@H](CCCC)C(=O)N[C@@H](CC(C)C)C(=O)N[C@H](C(N)=O)CSCC(=O)N[C@@H](Cc2ccc(O)cc2)C(=O)N(C)[C@@H](C)C(=O)N[C@@H](CC(N)=O)C(=O)N2CCC[C@H]2C(=O)N[C@@H](CN)C(=O)N[C@@H](CC(C)C)C(=O)N2C[C@H](O)C[C@H]2C(=O)N[C@@H](Cc2c[nH]c3ccccc23)C(=O)N[C@@H](CC(=O)O)C(=O)N[C@@H](Cc2cn(CC(=O)O)c3ccccc23)C(=O)N1C` [Example 6258] ({CH2CO}-Y[NMeA]NP[Dap]L[Hyp]WD[Trp(1-CH2COOH)][NMeNle][NMeNle]LC-NH2; thioether N-14), for which the IC50 is 10 to 99.9 nM.
Turning to `CCCC[C@H]1C(=O)N2C[C@@H](O)C[C@@H]2C(=O)N[C@@H](CC(=O)O)C(=O)N[C@@H](C(C)C)C(=O)N(C)[C@@H](Cc2ccc(F)cc2)C(=O)N[C@@H](CCCN)C(=O)N2CCC[C@@H]2C(=O)N[C@@H](Cc2c[nH]c3ccccc23)C(=O)N[C@@H](Cc2ccc(O)cc2)C(=O)N[C@@H](CC(C)C)C(=O)N[C@H](C(=O)NCC(N)=O)CSCC(=O)N[C@@H](Cc2cc(F)c(F)c(F)c2)C(=O)N(C)[C@@H](Cc2ccccc2)C(=O)N1C` [Example 10118] ({CH2CO}-[Phe(3,4,5-F3)][NMeF][NMeNle][dHyp]DV[NMePhe(4-F)][Orn][dP]WYLCG-NH2; thioether N-13), the IC50 lay within 1 to 9.9 nM.
For the compound `CCCC[C@H]1C(=O)N(C)[C@@H](CCCC)C(=O)N[C@@H](C)C(=O)N[C@H](C(=O)NCC(N)=O)CSCC(=O)N[C@@H](Cc2ccc(O)cc2)C(=O)N2CCCC[C@H]2C(=O)N[C@@H](CC(=O)O)C(=O)N2CCC[C@H]2C(=O)N[C@@H](CN)C(=O)N[C@@H](CCC(=O)O)C(=O)N2C[C@H](O)C[C@H]2C(=O)N[C@@H](Cc2c[nH]c3ccccc23)C(=O)N[C@@H](CO)C(=O)N[C@@H](Cc2c[nH]c3ccccc23)C(=O)N1C` [Example 1258] ({CH2CO}-Y[Pip]DP[Dap]E[Hyp]WSW[NMeNle][NMeNle]ACG-NH2; thioether N-14), the IC50 lay in the range of 1 to 9.9 nM.
`CCCC[C@H]1C(=O)N(C)[C@@H](CCCC)C(=O)N[C@@H](CCCN)C(=O)N[C@H](C(=O)NCC(N)=O)CSCC(=O)N[C@@H](Cc2ccc(OC)cc2)C(=O)N(C)[C@@H](C)C(=O)N[C@@H](CC(N)=O)C(=O)N2CCC[C@H]2C(=O)N[C@@H](CN)C(=O)N[C@@H](CCCCN)C(=O)N2C[C@H](O)C[C@H]2C(=O)N[C@@H](Cc2c[nH]c3ccccc23)C(=O)N[C@@H](CC(=O)O)C(=O)N[C@@H](Cc2c[nH]c3ccccc23)C(=O)N1C` [Example 7108] ({CH2CO}-Y(Me)[NMeA]NP[Dap]K[Hyp]WDW[NMeNle][NMeNle][Orn]CG-NH2; thioether N-14): the IC50 lay within 1 to 9.9 nM.
As for `CCCC[C@H]1C(=O)N[C@@H](Cc2ccc(O)cc2)C(=O)N2CCC[C@@H]2C(=O)N[C@@H](Cc2c[nH]c3ccccc23)C(=O)N[C@@H](Cc2ccc(O)cc2)C(=O)N[C@@H](CC(C)C)C(=O)N[C@H](C(=O)NCC(N)=O)CSCC(=O)N[C@@H](Cc2cc(F)c(F)c(F)c2)C(=O)N(C)[C@@H](Cc2ccccc2)C(=O)N(C)[C@@H](CCCC)C(=O)N2CCC[C@@H]2C(=O)N[C@@H](CC(=O)O)C(=O)N[C@@H](C(C)C)C(=O)N1C` [Example 9213] ({CH2CO}-[Phe(3,4,5-F3)][NMeF][NMeNle][dP]DV[NMeNle]Y[dP]WYLCG-NH2; thioether N-13), the IC50 was 10 to 99.9 nM.
As for `CCCC[C@H]1C(=O)N(C)[C@@H](CCCC)C(=O)N[C@@H](CN)C(=O)N[C@H](C(=O)NCC(N)=O)CSCC(=O)N[C@@H](Cc2ccc(O)cc2)C(=O)N(C)[C@@H](C)C(=O)N[C@@H](CC(N)=O)C(=O)N2CCC[C@H]2C(=O)N[C@@H](CN)C(=O)N[C@@H](CC(C)C)C(=O)N2C[C@H](O)C[C@H]2C(=O)N[C@@H](Cc2c[nH]c3ccccc23)C(=O)N[C@@H](CCN)C(=O)N[C@@H](Cc2cn(CC(=O)O)c3ccccc23)C(=O)N1C` [Example 6303] ({CH2CO}-Y[NMeA]NP[Dap]L[Hyp]W[Dab][Trp(1-CH2COOH)][NMeNle][NMeNle][Dap]CG-NH2; thioether N-14), the IC50 lay within 1 to 9.9 nM.

Still in this experiment, the particulars now being: PD-L1-His 10 nM, PD-1-Ig 20 nM; read-out: HTRF Human PD-L1/PD-1 Binding Assay IC50.
Regarding `CCCC[C@H]1C(=O)N(C)[C@@H](CCCC)C(=O)N[C@@H](CCC(=O)O)C(=O)NC(C(=O)NCC(N)=O)CSCC(=O)N[C@@H](Cc2ccc(O)cc2)C(=O)N(C)[C@@H](C)C(=O)N[C@@H](CC(N)=O)C(=O)N2CCC[C@H]2C(=O)N[C@@H](Cc2c[nH]cn2)C(=O)N[C@@H](CC(N)=O)C(=O)N2C[C@H](O)C[C@H]2C(=O)N[C@@H](Cc2c[nH]c3ccccc23)C(=O)N[C@@H](CC(=O)O)C(=O)N[C@@H](Cc2c[nH]c3ccccc23)C(=O)N1C` (stereo partly drawn) [Example 9175] ({CH2CO}-Y[NMeA]NPHN[Hyp]WDW[NMeNle][NMeNle]E[ξC]G-NH2; thioether N-14), the IC50 came to 364 nM.
On to `CCCC[C@H]1C(=O)N2CCOC[C@@H]2C(=O)N[C@@H](CC(=O)O)C(=O)N[C@@H](C(C)C)C(=O)N(C)[C@@H](Cc2ccccc2)C(=O)N[C@@H](CCCN)C(=O)N2CCC[C@@H]2C(=O)N[C@@H](Cc2c[nH]c3ccccc23)C(=O)N[C@@H](Cc2ccc(O)cc2)C(=O)N[C@@H](CCOC)C(=O)N[C@H](C(=O)NCC(N)=O)CSCC(=O)N[C@@H](Cc2cc(F)c(F)c(F)c2)C(=O)N(C)[C@@H](Cc2ccccc2)C(=O)N1C` [Example 10190] ({CH2CO}-[Phe(3,4,5-F3)][NMeF][NMeNle][X1]DV[NMeF][Orn][dP]WY[hSer](Me)CG-NH2; thioether N-13), for which the IC50 turned out to be 8.2 nM.
